Results reported in US10689383B2, “Optionally fused heterocyclyl-substituted derivatives of pyrimidine useful for the treatment of inflammatory, metabolic, oncologic and autoimmune diseases” (NUEVOLUTION A/S, priority 2014, dated 2020).

Assays:
[1] = biological target: T1, yeast Gal4-DNA binding domain fused to the ligand binding domain of human RORγ (Homo sapiens, UniProt P51449); assay: RORγ Reporter Assay (Gal4); assay type: cell-based; settings: values given as lower bounds of ranges; for Gal4 activity range @ 1 μM (% inhibition): RORγ Reporter Assay (Gal4) at 1 μM
T1 construct: host or cells: HEK293t
T1 sequence (P51449 269-508 limits assumed): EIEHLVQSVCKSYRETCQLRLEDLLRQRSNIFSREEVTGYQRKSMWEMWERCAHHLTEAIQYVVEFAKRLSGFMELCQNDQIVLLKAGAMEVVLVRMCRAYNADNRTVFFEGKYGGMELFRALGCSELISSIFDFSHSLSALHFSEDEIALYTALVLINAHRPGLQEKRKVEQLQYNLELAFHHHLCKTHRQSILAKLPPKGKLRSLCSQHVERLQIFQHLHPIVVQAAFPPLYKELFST
Summary of the method: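 Compound at final 1,000 or 100 nM (0.1% DMSO, triplicate) was added to the transfected HEK293t cells carrying a Gal4-UAS luciferase reporter for 24 h at 37 °C, 10% charcoal-stripped FBS. Activity reduction expressed as percent of vehicle-only luciferase signal.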

[2] = biological target: T2, human RORγt (Ligand Binding Domain) (Homo sapiens, UniProt P51449); assay: Fluorescence Polarization (FP) Assay; settings: Fluorescence Polarization (FP) Assay; values given as upper bounds of activity ranges; read-out: FP activity range
T2 construct: purchased Crelux (Planegg, Germany) batch no PC5032-1
T2 sequence (P51449 269-508 limits assumed): T1 sequence (P51449 269-508 limits assumed)
Summary of the method: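 Binding to the ligand pocket followed by fluorescence polarization with a TAMRA-tagged RORγt ligand probe of 910 g/mole. Negative control wells received DMSO only.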

Th17 cells = assay: Th17 Assay (IL-17 levels in supernatants by ELISA); assay type: cell-based; settings: Homo sapiens; read-out: Th17 activity range @ 1 μM (% inhibition)
Description: The activity of the compounds was evaluated using a Fluorescence Polarization (FP) Assay and, in most cases, a Th17 Assay and/or RORγ Reporter assay (also referred to as Gal4 assay). The FP assay is an in vitro assay monitoring binding within the ligand binding pocket. The RORγ and the Th17 assays are both cell-based assays monitoring functional activity of the compound assayed.
Human peripheral blood mononuclear cells (PBMCs) were isolated from buffy coats of healthy human volunteers using the Ficoll paque PLUS kit (GE Healthcare, cat no 17-1440-02), as instructed by the manufacturer. Naive CD4+ T cells were isolated with Naive CD4+ T cell kit, human (Milteny Biotec, cat no 130-094-131). The following modifications were made to the manufacturer's protocol: 1) Incubation with Biotin-Antibody Cocktail and Anti-Biotin MicroBeads was prolonged to 30 minutes, and 2) Cells were washed with 40 mL of Miltenyi buffer. Differentiation of Th17 cells in anti-CD3 (BD Pharmingen, 5 μg/ml) coated 96-well plates (400,000 cells/well, 160 μl RPMI 1640+10% Fetal Bovine Serum) containing 5 μg/ml anti-CD28 (BD Pharmingen), 10 ng/ml IL-2 (R&D Systems), 2.5 ng/ml TGFβ-1 (R&D Systems), 20 ng/ml IL-1β (R&D Systems), 20 ng/ml IL-6 (R&D Systems), 30 ng/ml IL-23 (R&D Systems), 2.5 μg/ml anti-IL-4 (R&D Systems) and 1 μg/ml anti-IFNγ (R&D Systems) and with test compound during the entire differentiation (or vehicle, 0.1% DMSO for control). Test compounds were tested in triplicates, diluted 1000-fold in medium (final DMSO concentration is 0.1%). Incubated for seven days at 37° C., 5% CO2, 95% humidity, and 2-fluoro-4′-[[4-(4-pyridinylmethyl)-1-piperazinyl]methyl]-α,α-bis(trifluoromethyl)-[1,1′-biphenyl]-4-methanol (SR2211 Calbiochem, Cat. No. 557353) was used as positive control. As negative control, cells were differentiated into Th0 using 5 μg/ml anti-CD28 (BD Pharmingen), 10 ng/ml IL-2 (R&D Systems), 2 μg/ml anti-IL4 (R&D Systems) and 2 μg/ml anti-IFNγ (R&D Systems) are negative control. IL-17 levels in supernatants were measured with ELISA (R&D Systems).

CC(C)(C)C[C@@H](Nc1ncnc(N2CCC[C@@H]2c2ccc(C(F)(F)F)cc2)c1F)C(N)=O (single isomer, unassigned) [Example 62, (2R)-2-[[5-fluoro-6-[(2R)-2-[4-(trifluoromethyl)phenyl]pyrrolidin-1-yl]pyrimidin-4-yl]amino]-4,4-dimethyl-pentanamide or (2R)-2-[[5-fluoro-6-[(2S)-2-[4-(trifluoromethyl)phenyl]pyrrolidin-1-yl]pyrimidin-4-yl]amino]-4,4-dimethyl-pentanamide]
Gal4 activity range @ 1 μM (% inhibition) [1]: >80 % inhibition
IC50 [2]: < 500 nM
inhibition at 1 µM (Th17 cells): > 80%

CC(C)(C)C[C@@H](Nc1cc(N2CCCC2c2ccc(C(F)(F)F)cc2)ncn1)C(N)=O (stereo partly drawn) [Example 6, (2R)-4,4-dimethyl-2-[[6-[2-[4-(trifluoromethyl)phenyl]pyrrolidin-1-yl]pyrimidin-4-yl]amino]pentanamide]
IC50 [2]: < 10000 nM
inhibition at 1 µM (Th17 cells): > 20%

CC(C)(C)C[C@@H](Nc1nc(C(F)(F)F)nc(N2CCCC2c2ccc(C(F)(F)F)cc2)c1F)C(N)=O (stereo partly drawn) [Example 13, (2R)-2-[[5-fluoro-2-(trifluoromethyl)-6-[2-[4-(trifluoromethyl)phenyl]pyrrolidin-1-yl]pyrimidin-4-yl]amino]-4,4-dimethyl-pentanamide]
IC50 [2]: < 10000 nM
inhibition at 1 µM (Th17 cells): > 20%

CC1CC(c2ccc(C(F)(F)F)cc2)N(c2ncnc(N[C@H](CC(C)(C)C)C(N)=O)c2F)C1 (stereo partly drawn) [Example 18, (2R)-2-[[5-fluoro-6-[4-methyl-2-[4-(trifluoromethyl)phenyl]pyrrolidin-1-yl]pyrimidin-4-yl]amino]-4,4-dimethyl-pentanamide]
IC50 [2]: < 500 nM
inhibition at 1 µM (Th17 cells): > 80%

CC(C)(C)C[C@@H](Nc1ncnc(N2CCCC2c2ccc(C(C)(C)C)cc2)c1F)C(N)=O (stereo partly drawn) [Example 19, (2R)-2-[[6-[2-(4-tert-butylphenyl)pyrrolidin-1-yl]-5-fluoro-pyrimidin-4-yl]amino]-4,4-dimethyl-pentanamide]
IC50 [2]: < 500 nM
inhibition at 1 µM (Th17 cells): > 80%

COc1ccc(C[C@H](CO)Nc2ncnc(N3CCCC3c3ccc(C(F)(F)F)cc3)c2F)cc1 (stereo partly drawn) [Example 29, (2R)-2-[[5-fluoro-6-[2-[4-(trifluoromethyl)phenyl]pyrrolidin-1-yl]pyrimidin-4-yl]amino]-3-(4-methoxyphenyl)propan-1-ol]
IC50 [2]: < 1000 nM
inhibition at 1 µM (Th17 cells): > 50%

CC(C)(C)C[C@H](CO)Nc1ncnc(N2CCCC2c2ccc(C(F)(F)F)cc2)c1F (stereo partly drawn) [Example 30, (2R)-2-[[5-fluoro-6-[2-[4-(trifluoromethyl)phenyl]pyrrolidin-1-yl]pyrimidin-4-yl]amino]-4,4-dimethyl-pentan-1-ol]
Gal4 activity range @ 1 μM (% inhibition) [1]: >80 % inhibition
IC50 [2]: < 500 nM
inhibition at 1 µM (Th17 cells): > 50%

CC(C)C[C@@H](Nc1ncnc(N2CC(C)CC2c2ccc(C(F)(F)F)cc2)c1F)C(=O)O (stereo partly drawn) [Example 33, (2R)-2-[[5-fluoro-6-[4-methyl-2-[4-(trifluoromethyl)phenyl]pyrrolidin-1-yl]pyrimidin-4-yl]amino]-4-methyl-pentanoic acid]
IC50 [2]: < 10000 nM
inhibition at 1 µM (Th17 cells): > 20%

CC(C)(C)C[C@@H](Nc1ncnc(N2CCCC2c2ccc(C(F)(F)F)cc2Cl)c1F)C(N)=O (stereo partly drawn) [Example 35, (2R)-2-[[6-[2-[2-chloro-4-(trifluoromethyl)phenyl]pyrrolidin-1-yl]-5-fluoro-pyrimidin-4-yl]amino]-4,4-dimethyl-pentanamide]
IC50 [2]: < 500 nM
inhibition at 1 µM (Th17 cells): > 50%

CC(C)(C)C[C@@H](Nc1ncnc(N2CCCC2c2ccc(C(F)(F)F)cc2Cl)c1F)C(=O)O (stereo partly drawn) [Example 36, (2R)-2-[[6-[2-[2-chloro-4-(trifluoromethyl)phenyl]pyrrolidin-1-yl]-5-fluoro-pyrimidin-4-yl]amino]-4,4-dimethyl-pentanoic acid]
IC50 [2]: < 2000 nM
inhibition at 1 µM (Th17 cells): > 50%

CC1CCN(c2ncnc(N[C@H](CC(C)(C)C)C(N)=O)c2F)C1c1ccc(C(F)(F)F)cc1 (stereo partly drawn) [Example 38, (2R)-2-[[5-fluoro-6-[3-methyl-2-[4-(trifluoromethyl)phenyl]pyrrolidin-1-yl]pyrimidin-4-yl]amino]-4,4-dimethyl-pentanamide]
IC50 [2]: < 2000 nM
inhibition at 1 µM (Th17 cells): > 50%

NC(=O)Cc1ccc(CNc2ncnc(N3CCCC3c3ccc(C(F)(F)F)cc3)c2F)cc1 (stereo not shown) [Example 40, 2-[4-[[[5-fluoro-6-[2-[4-(trifluoromethyl)phenyl]pyrrolidin-1-yl]pyrimidin-4-yl]amino]methyl]phenyl]acetamide]
IC50 [2]: < 1000 nM
inhibition at 1 µM (Th17 cells): > 80%

COc1ccc(Cn2ccc3c(N4CCCC4c4ccc(C(F)(F)F)cc4)ccnc32)cc1OC (stereo not shown) [Example 67, 1-[(3,4-dimethoxyphenyl)methyl]-4-[2-[4-(trifluoromethyl)phenyl]pyrrolidin-1-yl]pyrrolo[2,3-b]pyridine]
Gal4 activity range @ 1 μM (% inhibition) [1]: >80 % inhibition
IC50 [2]: < 2000 nM
inhibition at 1 µM (Th17 cells): > 80%

O=C(O)Cc1ccc(COc2ncnc(N3CCCC3c3ccc(C(F)(F)F)cc3)c2F)cc1 (stereo not shown) [Example 79, 2-[4-[[5-fluoro-6-[2-[4-(trifluoromethyl)phenyl]pyrrolidin-1-yl]pyrimidin-4-yl]oxymethyl]phenyl]acetic acid]
Gal4 activity range @ 1 μM (% inhibition) [1]: >50 % inhibition
IC50 [2]: < 500 nM
inhibition at 1 µM (Th17 cells): > 50%

CC(C)C[C@@H](Oc1ncnc(-n2nccc2-c2ccc(C(F)(F)F)cc2)c1F)C(N)=O [Example 80, (2R)-2-[5-fluoro-6-[5-[4-(trifluoromethyl)phenyl]pyrazol-1-yl]pyrimidin-4-yl]oxy-4-methyl-pentanamide]
inhibition at 1 µM (Th17 cells): > 50%

O=C(O)Cc1ccc(CNc2ncnc(N3CCC[C@@H]3c3ccc(C(F)(F)F)cc3)c2F)cc1 [Example 81, 2-[4-[[[5-fluoro-6-[(2R)-2-[4-(trifluoromethyl)phenyl]pyrrolidin-1-yl]pyrimidin-4-yl]amino]methyl]phenyl]acetic acid]
Gal4 activity range @ 1 μM (% inhibition) [1]: >80 % inhibition
IC50 [2]: < 500 nM
inhibition at 1 µM (Th17 cells): > 80%

O=C(O)Cc1ccc(COc2ncnc(NCc3ccc(C(F)(F)F)cc3)c2F)cc1 [Example 83, 2-[4-[[5-fluoro-6-[[4-(trifluoromethyl)phenyl]methylamino]pyrimidin-4-yl]oxymethyl]phenyl]acetic acid]
inhibition at 1 µM (Th17 cells): > 20%

O=C(O)Cc1ccc(Cn2ccc3c(N4CCCC4c4ccc(C(F)(F)F)cc4)ncnc32)cc1 (stereo not shown) [Example 85, 2-[4-[[4-[2-[4-(trifluoromethyl)phenyl]pyrrolidin-1-yl]pyrrolo[2,3-d]pyrimidin-7-yl]methyl]phenyl]acetic acid]
Gal4 activity range @ 1 μM (% inhibition) [1]: >80 % inhibition
IC50 [2]: < 500 nM
inhibition at 1 µM (Th17 cells): > 80%

N#Cc1ccc(CNc2ncnc(N3CCCC3c3ccc(C(F)(F)F)cc3)c2F)cc1 (stereo not shown) [Example 88, 4-[[[5-fluoro-6-[2-[4-(trifluoromethyl)phenyl]pyrrolidin-1-yl]pyrimidin-4-yl]amino]methyl]benzonitrile]
IC50 [2]: < 500 nM
inhibition at 1 µM (Th17 cells): > 80%

Cc1ccc(CNc2ncnc(N3CCCC3c3ccc(C(F)(F)F)cc3)c2F)cn1 (stereo not shown) [Example 89, 5-fluoro-N-[(6-methyl-3-pyridyl)methyl]-6-[2-[4-(trifluoromethyl)phenyl]pyrrolidin-1-yl]pyrimidin-4-amine]
Gal4 activity range @ 0.1 μM (% inhibition) ([1]; RORγ Reporter Assay (Gal4) at 0.1 μM): >20 % inhibition
Gal4 activity range @ 1 μM (% inhibition) [1]: >80 % inhibition
IC50 [2]: < 500 nM
inhibition at 1 µM (Th17 cells): > 20%
